Experimental findings from ChEMBL document CHEMBL1146994, “Advances toward new antidepressants beyond SSRIs: 1-aryloxy-3-piperidinylpropan-2-ols with dual 5-HT1A receptor antagonism/SSRI activities. Part 5” (Bioorg Med Chem Lett, 2006) are described below.

The source made the active and inactive calls. The rule behind the calls is not given here. Some results are limits rather than exact numbers.

Experiment [1] relates to Rattus norvegicus. Put plainly: Ability to block 8-OH-DPAT-induced increase of corticosterone in sc dosed rat serum after 1 hr. The format is functional.
The test system of experiment [2] is Rattus norvegicus. Nature of the experiment: Ability to block PCA-induced depletion of 5HT concentration in sc dosed rat brain after 2 hrs. It is filed as functional.
The test system of experiment [3] is Rattus norvegicus. Put plainly: Increase in 5HT level in Sprague-Dawley rat hypothalamus by microdialysis at 20 mg/kg, sc (basal value set at 100%). It is filed as functional. The settings on record: route subcutaneous.
The target in experiment [4] is Sodium-dependent serotonin transporter (Homo sapiens, UniProt P31645). Put plainly: Displacement of [3H]paroxetine from 5HT reuptake site.
Chain of Sodium-dependent serotonin transporter (P31645 whole entry): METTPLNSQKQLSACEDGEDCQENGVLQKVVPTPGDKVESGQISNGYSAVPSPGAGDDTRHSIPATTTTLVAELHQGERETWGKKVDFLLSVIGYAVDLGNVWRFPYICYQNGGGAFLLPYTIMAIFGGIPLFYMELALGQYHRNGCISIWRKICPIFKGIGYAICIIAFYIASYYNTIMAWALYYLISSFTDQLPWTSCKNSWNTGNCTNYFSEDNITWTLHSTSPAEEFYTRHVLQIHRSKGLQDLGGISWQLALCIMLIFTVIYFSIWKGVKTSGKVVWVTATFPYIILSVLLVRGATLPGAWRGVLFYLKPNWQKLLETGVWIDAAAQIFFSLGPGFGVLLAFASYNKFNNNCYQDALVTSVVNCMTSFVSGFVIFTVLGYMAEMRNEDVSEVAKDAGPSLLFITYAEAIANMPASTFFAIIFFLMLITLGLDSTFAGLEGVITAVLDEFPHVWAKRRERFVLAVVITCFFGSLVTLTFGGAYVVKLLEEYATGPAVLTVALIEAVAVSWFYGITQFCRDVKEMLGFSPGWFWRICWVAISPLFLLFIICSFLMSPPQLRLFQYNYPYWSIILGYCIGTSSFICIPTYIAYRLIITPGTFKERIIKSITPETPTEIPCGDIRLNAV
Experiment [5] addresses T1, 5-hydroxytryptamine receptor 1A (Rattus norvegicus) (UniProt P19327).
T1 sequence (whole entry): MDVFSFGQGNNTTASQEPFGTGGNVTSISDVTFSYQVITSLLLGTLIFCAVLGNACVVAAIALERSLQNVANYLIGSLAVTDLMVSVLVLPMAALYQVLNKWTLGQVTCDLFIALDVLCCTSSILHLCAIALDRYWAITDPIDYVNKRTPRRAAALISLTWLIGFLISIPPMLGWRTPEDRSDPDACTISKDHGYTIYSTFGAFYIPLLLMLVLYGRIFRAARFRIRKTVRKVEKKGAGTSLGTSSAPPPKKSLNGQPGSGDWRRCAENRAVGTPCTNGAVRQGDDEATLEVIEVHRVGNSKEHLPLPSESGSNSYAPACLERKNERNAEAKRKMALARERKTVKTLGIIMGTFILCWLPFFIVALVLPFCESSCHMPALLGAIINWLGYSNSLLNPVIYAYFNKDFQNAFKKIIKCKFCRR
Put plainly: Receptor occupancy ex vivo by inhibition of [3H]8-OH-DPAT binding to 5HT1A receptor in Sprague-Dawley rat frontal cortex tissue at 30 mg/kg, po relative to control. The format is functional, organism-based. On the set-up: dose 30 mg/kg.

The target of experiment [6] is Sodium-dependent serotonin transporter (Rattus norvegicus) (UniProt P31652). Put plainly: Receptor occupancy ex vivo by inhibition of [3H]paroxetine binding to 5HT reuptake site in Sprague-Dawley rat frontal cortex tissue at 30 mg/kg, po relative to control. On the set-up: dose 30 mg/kg. It is filed as functional, organism-based.
Chain of Sodium-dependent serotonin transporter (Rattus norvegicus) (P31652 whole entry): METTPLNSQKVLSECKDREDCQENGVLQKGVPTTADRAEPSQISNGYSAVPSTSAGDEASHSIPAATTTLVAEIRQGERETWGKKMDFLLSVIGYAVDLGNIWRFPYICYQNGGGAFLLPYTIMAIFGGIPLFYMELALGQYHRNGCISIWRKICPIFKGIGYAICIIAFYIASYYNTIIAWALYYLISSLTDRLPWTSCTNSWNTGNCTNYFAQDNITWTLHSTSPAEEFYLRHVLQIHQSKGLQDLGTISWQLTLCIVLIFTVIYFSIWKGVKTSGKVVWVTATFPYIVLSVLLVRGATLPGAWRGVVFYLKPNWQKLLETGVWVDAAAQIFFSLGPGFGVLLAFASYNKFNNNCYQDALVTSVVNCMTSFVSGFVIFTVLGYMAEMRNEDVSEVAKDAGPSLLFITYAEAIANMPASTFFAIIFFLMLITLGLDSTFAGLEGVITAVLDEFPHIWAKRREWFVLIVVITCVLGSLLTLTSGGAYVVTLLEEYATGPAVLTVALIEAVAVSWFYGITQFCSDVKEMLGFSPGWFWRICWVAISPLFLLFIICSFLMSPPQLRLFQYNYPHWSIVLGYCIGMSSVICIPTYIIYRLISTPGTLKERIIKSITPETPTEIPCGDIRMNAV
Experiment [7] has as its system Rattus norvegicus. Nature of the experiment: Increase in 5HT level in Sprague-Dawley rat hypothalamus by microdialysis at 30 mg/kg, po (basal value set at 100%). The format is functional.
Experiment [8] deals with Rattus norvegicus. Nature of the experiment: Increase in 5HT level in Sprague-Dawley rat hypothalamus by microdialysis at 10 mg/kg, po (basal value set at 100%). It is filed as functional.
Experiment [9] deals with Rattus norvegicus. Put plainly: Reduction of serotonergic neuron level in dorsal raphe nucleus of anesthetized rat after 3 days of sub-chronic administration at 10 mg/kg/day. It is filed as functional, organism-based.
Experiment [10] concerns Rattus norvegicus. Put plainly: Increase in 5HT level in Sprague-Dawley rat hypothalamus by microdialysis at 10 mg/kg, ip (basal value set at 100%). The settings on record: route intraperitoneal. It is filed as functional.
For experiment [11], the system named is Rattus norvegicus. Nature of the experiment: Ability to block 8-OH-DPAT-induced increase of corticosterone in po dosed rat serum after 1 hr. It is filed as functional.
The subject of experiment [12] is Rattus norvegicus. Nature of the experiment: Ability to block PCA-induced depletion of 5HT concentration in po dosed rat brain after 2 hrs. It is filed as functional.
For experiment [13], the system named is Rattus norvegicus. Nature of the experiment: Increase in 5HT level in Sprague-Dawley rat hypothalamus by microdialysis at 20 mg/kg, po (basal value set at 100%). It is filed as functional.

Regarding `C[C@H]1C[C@H](c2cc3ccccc3s2)CCN1C[C@H](O)COc1cccc2[nH]ccc12`, the results for the ED50 in experiment [1] and in experiment [2] were 2.83 mg/kg and 0.28 mg/kg, respectively. The same compound yielded an Activity in experiment [3] of 264%. In experiment [4], the affinity corresponds to a Ki of 0.51 nM. Besides, the inhibition in experiment [5] was 1%; in experiment [6] it was -2%.

For the compound `O[C@H](COc1cccc2[nH]ccc12)CN1CCC(c2cc3ccc(F)cc3s2)CC1`, the Activity in [7] is on record as 130%. The same compound displayed a Ki in experiment [4] of 1.99 nM. Also, the inhibition came out at 9% in experiment [5] and 13% in [6].

On to `Cc1cc2c(OC[C@@H](O)CN3CC[C@@H](c4cc5ccccc5s4)C[C@@H]3C)cccc2[nH]1`, for which, in experiment [8], the Activity came to 119%. The inhibition turned out to be 5% in experiment [5] and 17% in experiment [6].

Consider `CNCCC(Oc1ccc(C(F)(F)F)cc1)c1ccccc1` (stereo not drawn) [FLUOXETINE], for which the outcome in experiment [9] was Active. Besides, the Activity in experiment [10] was 160%.

In [7], `Cc1cc2c(OC[C@@H](O)CN3CC[C@@H](c4cc5cc(F)ccc5s4)C[C@@H]3C)cccc2[nH]1` yielded an Activity of 315%. This compound showed a Ki in [4] of 0.24 nM. For the same compound, the figures for the inhibition in experiment [5] and in experiment [6] were 6% and 30%, respectively.

In turn, `COc1cccc2sc(C3CCN(C[C@H](O)COc4cccc5[nH]ccc45)CC3)cc12` displayed a Ki in experiment [4] of 12.6 nM. The values for the inhibition in experiment [5] and in experiment [6] were 4% and 100%, respectively.

With `C[C@H]1C[C@H](c2cc3ccc(F)cc3s2)CCN1C[C@H](O)COc1cccc2[nH]ccc12`, the results for the ED50 in experiment [1], in experiment [11] and in experiment [12] were 5.08 mg/kg, > 30 mg/kg and 0.69 mg/kg, respectively. This compound came in with an Activity in [7] of 479%. Also, the Ki in experiment [4] was found to be 0.31 nM. Besides, the figures for the inhibition in [5] and in experiment [6] were 23% and 8%, respectively.

As for `COc1cccc2sc([C@H]3CCN(C[C@H](O)COc4cccc5[nH]ccc45)[C@@H](C)C3)cc12`, in experiment [4], the Ki was determined as 13.6 nM. Besides, the inhibition in [5] was 40%; in experiment [6], 88%.

For the compound `COc1ccc2cc([C@@H]3CCN(C[C@H](O)COc4cccc5[nH]ccc45)[C@@H](C)C3)sc2c1`, the ED50 in experiment [2] came to 1.07 mg/kg. Besides, the Activity in [7] was found to be 140%. In experiment [4], this compound returned an inhibition constant Ki of 1.1 nM. The inhibition in [5] came to 14%; in experiment [6] it was 29%.

Turning to `COc1cccc2sc([C@H]3CCN(C[C@H](O)COc4cccc5[nH]ccc45)[C@H](C)C3)cc12`, the Activity in [13] came to 330%. Moreover, in [4], the Ki is 1.15 nM. Moreover, the inhibition in [5] amounted to 33%; in [6], 8%. Besides, the 50% effective dose (ED50) in experiment [11] is > 30 mg/kg; in experiment [12] it was > 10 mg/kg.

On to `Cc1cccc2sc([C@@H]3CCN(C[C@H](O)COc4cccc5[nH]ccc45)[C@@H](C)C3)cc12`, for which the Activity in [7] amounted to 210%. The Ki in experiment [4] came out at 0.44 nM. The inhibition in experiment [5] is 20%; in experiment [6] it was 9%. Besides, the ED50 in experiment [11] is > 30 mg/kg; in [12], 1.65 mg/kg.

Take `COc1cccc2sc([C@@H]3CCN(C[C@H](O)COc4cccc5[nH]ccc45)[C@@H](C)C3)cc12`: in experiment [7], the Activity is given as 368%. This compound returned a Ki in experiment [4] of 0.27 nM. In addition, the inhibition in experiment [5] stood at 13%; in experiment [6] it was 11%. Moreover, the ED50 is 21.1 mg/kg in [11] and 3.71 mg/kg in [12].

Regarding `COc1cccc2sc([C@@H]3CCN(C[C@H](O)COc4cccc5[nH]ccc45)[C@H](C)C3)cc12`, the inhibition in experiment [5] amounted to 28%; in experiment [6] it was 70%.

As for `C[C@H]1C[C@H](c2cc3cc(Cl)ccc3s2)CCN1C[C@H](O)COc1cccc2[nH]ccc12`, in experiment [13], the Activity worked out at 287%. In experiment [4], this compound gave a Ki of 0.58 nM. Moreover, the values for the inhibition in experiment [5] and in experiment [6] were 47% and 39%, respectively. Moreover, the ED50 amounted to 26 mg/kg in [11] and 3.65 mg/kg in experiment [12].

`COc1cccc2sc(C3CCN(C[C@H](O)COc4cccc5[nH]c(C)cc45)CC3)cc12`: the affinity in experiment [4], expressed as Ki, was 51.2 nM.

As to `O[C@H](COc1cccc2[nH]ccc12)CN1CCC(c2cc3ccccc3s2)CC1`, the Ki in experiment [4] is 16.7 nM. In addition, the inhibition in experiment [5] worked out at 6%; in [6], 80%.

Consider `COc1cccc2sc([C@@H]3CCN(C[C@H](O)COc4cccc5[nH]c(C)cc45)[C@@H](C)C3)cc12`, for which the outcome in [9] was inactive. In experiment [8], this compound yielded an Activity of 713%. The values for the inhibition in experiment [5] and in experiment [6] were -3% and 26%, respectively. The ED50 in experiment [11] came to 3.2 mg/kg; in [12], 3.79 mg/kg.
